Columns and labels:
Experiment in all cases: relative viability (nuclei count vs DMSO), 5 days (fraction); higher = more cells survive
Crenolanib + Crizotinib = compound: CC1(COc2ccc3c(c2)ncn3-c2ccc3cccc(N4CCC(N)CC4)c3n2)COC1 [Crenolanib] + C[C@@H](Oc1cc(-c2cnn(C3CCNCC3)c2)cnc1N)c1c(Cl)ccc(F)c1Cl [Crizotinib] (partner 1 µM)
In short: (§1)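 For relative viability, nuclei counts in treated wells were divided by those in vehicle wells. Lung cancer cell lines had been pin-tool dosed in 1536-well plates the day after seeding and cultured for 5 days, then fixed and stained in one step (final 0.05% Triton X-100, 1% formaldehyde, 1 ug/ml Hoechst) and imaged at 4×. Doses were one drug alone or a fixed anchor-drug dose plus five library-drug doses (not always all listed) in √10 steps, and values are duplicate-plate medians.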

Crenolanib + Pemetrexed = compound: CC1(COc2ccc3c(c2)ncn3-c2ccc3cccc(N4CCC(N)CC4)c3n2)COC1 [Crenolanib] + Nc1nc2[nH]cc(CCc3ccc(C(=O)N[C@@H](CCC(=O)O)C(=O)O)cc3)c2c(=O)[nH]1 [Pemetrexed] (partner 0.2 µM)
In short: as §1

Crenolanib + Luminespib = compound: CC1(COc2ccc3c(c2)ncn3-c2ccc3cccc(N4CCC(N)CC4)c3n2)COC1 [Crenolanib] + CCNC(=O)c1noc(-c2cc(C(C)C)c(O)cc2O)c1-c1ccc(CN2CCOCC2)cc1 [Luminespib] (partner 0.01 µM)
In short: as §1

Tivantinib + OSI-027 = compound: O=C1NC(=O)[C@@H](c2cn3c4c(cccc24)CCC3)[C@@H]1c1c[nH]c2ccccc12 [Tivantinib] + COc1cccc2cc(-c3nc([C@H]4CC[C@H](C(=O)O)CC4)n4ncnc(N)c34)[nH]c12 [OSI-027] (partner 0.5 µM)
In short: as §1

Cell Line	relative viability (Crenolanib + Crizotinib; first compound 0.01 µM)	relative viability (Crenolanib + Crizotinib; first compound 0.03162 µM)	relative viability (Crenolanib + Crizotinib; first compound 0.1 µM)	relative viability (Crenolanib + Crizotinib; first compound 0.3162 µM)	relative viability (Crenolanib + Crizotinib; first compound 1 µM)	relative viability (Crenolanib + Pemetrexed; first compound 0.01 µM)	relative viability (Crenolanib + Pemetrexed; first compound 0.03162 µM)	relative viability (Crenolanib + Pemetrexed; first compound 0.1 µM)	relative viability (Crenolanib + Pemetrexed; first compound 0.3162 µM)	relative viability (Crenolanib + Pemetrexed; first compound 1 µM)	relative viability (Crenolanib + Luminespib; first compound 0.01 µM)	relative viability (Crenolanib + Luminespib; first compound 0.03162 µM)	relative viability (Crenolanib + Luminespib; first compound 0.1 µM)	relative viability (Crenolanib + Luminespib; first compound 0.3162 µM)	relative viability (Crenolanib + Luminespib; first compound 1 µM)	relative viability (Tivantinib + OSI-027; first compound 0.01 µM)	relative viability (Tivantinib + OSI-027; first compound 0.1 µM)	relative viability (Tivantinib + OSI-027; first compound 0.3162 µM)	relative viability (Tivantinib + OSI-027; first compound 0.03162 µM)
LK-2	0.238	0.24	0.219	0.227	0.213	0.314	0.268	0.263	0.27	0.274	0.169	0.18	0.16	0.17	0.199	0.225	0.219	0.243	
LOU-NH91	0.765	0.753	0.688	0.722	0.729	0.399	0.45	0.353	0.423	0.383	0.326	0.304	0.33	0.303	0.317	0.657	0.729	0.465	0.709
LU99A	0.565	0.654	0.615	0.558	0.568	0.22	0.204	0.151	0.197	0.198	0.253	0.217	0.219	0.287	0.207	0.295	0.296	0.249	0.295
LXF-289	0.81	0.745	0.777	0.753	0.81	0.853	0.905	0.865	0.922	0.897	0.657	0.772	0.617	0.722	0.711	0.77	0.761	0.858	0.724
NCI-H23	0.689	0.476	0.615	0.441	0.575	0.761	0.62	0.644	0.817	0.615	0.235	0.279	0.226	0.216	0.174	0.651	0.515	0.518	0.366
NCI-H322M	0.96	0.807	1	0.903	1.05	0.597	0.583	0.631	0.6	0.605	0.949	0.88	0.752	0.769	0.802	0.542	0.546		0.501
NCI-H358	0.701	0.584	0.592	0.454	0.661	0.176	0.169	0.176	0.178	0.188	1.3	0.307	0.232	0.343	0.337	0.839	0.634	0.195	0.94
NCI-H441	0.684	0.738	0.56	0.772	0.846	0.261	0.278	0.269	0.312	0.273	0.387	0.393	0.333	0.433	0.359	0.517	0.498	0.471	0.608
NCI-H460	0.935	0.924	0.904	1.19	0.831	0.063	0.067	0.075	0.0642	0.0669	0.0489	0.039	0.0453	0.0313	0.0348	0.608	0.619	0.864	0.573
NCI-H520	0.743	0.915	0.802	0.933	0.983	0.701	0.792	0.628	0.684	0.702	0.19	0.269	0.279	0.216	0.221	0.318	0.261	0.261	0.221
NCI-H596	1.01	1.07	0.87	0.904	1.04	0.462	0.481	0.47	0.513	0.507	1.11	0.97	0.932	1.12	1.11	0.619	0.821	0.734	0.62
NCI-H647	1.07	1.03	1.03	1.01	1.03	0.202	0.19	0.201	0.209	0.217	0.202	0.206	0.44	0.233	0.107	0.792	0.574	0.83	0.618
NCI-H650	0.968	0.706	0.805	0.5	0.644	1.03	1.01	0.93	0.932	0.918	0.839	0.791	0.777	0.872	0.757	0.542	0.501	0.641	0.403
NCI-H661	1.04	1.08		1.05	1.15	0.959	0.903	0.925	0.966	0.979	0.939	0.88	0.893	0.958	0.959	0.72	0.755	0.396	0.665
NCI-H838	0.883	0.855	0.821	0.872	0.772	0.247	0.253	0.258	0.264	0.281	0.353	0.235	0.29	0.301	0.373	0.394	0.345	0.363	0.377
